Laboratory results from PubChem BioAssay AID2060491 (Molecular Pharmacology Branch, DTP, NCI, 2025).

System: 857933-349-R-J2-PDC complex spheroids, viability
Assay: Anticancer human tumor 857933-349-R-J2-PDC patient-derived colon adenocarcinoma cell line growth inhibition [GQUAD]
Conditions: for IC50: curve of first compound; for viability, T/C: stronger effect = lower value
Text: DNA G-quadruplex Stabilizer Agents in Combinations in Complex Spheroids
A high-throughput screen of multi-cell type tumor spheroids was designed to identify active combinations of DNA G-quadruplex stabilizer agents and targeted small molecules. Complex spheroids include a stromal component modeled by human endothelial cells (HUVEC) and fibroblasts modeled by human mesenchymal stem cells (MSCs). The concentration ranges selected for each drug and investigational agent were based upon clinically achievable concentrations if the clinical Cmax of the agent was known.
Compounds. The drugs and investigational agents: pidnarulex (CX-5461; NSC782164), APTO-253 (NSC789042), BRACO-19 (NSC847499), peposertib (NSC802822), ceralasertib (NSC780249), elimusertib (NSC800525), camonsertib (NSC841442), AZD-1390 (NSC803789), olaparib (NSC753686), talazoparib (NSC767125), ART-558 (NSC835418), sotorasib (NSC818433), MRTX-1133 (NSC836407), SN-38 (NSC673596), topotecan (NSC609699), etoposide (NSC141540), doxorubicin (NSC123127), gemcitabine (NSC613327), 5-fluorouracil (NSC19893), paclitaxel (NSC125973), vemurafenib (NSC761431), panobinostat (NSC761190), R-306465 (JNJ-16241199; NSC773264), adavosertib (NSC754352), TP-3654 (NSC805149), carboplatin (NSC241240), KSQ-4279 (NSC840948), and staurosporine (NSC755774) were obtained from the National Cancer Institute (NCI) Developmental Therapeutics Program Chemical Repository (34). The FDA-approved anticancer drug set is available from the NCI Developmental Therapeutics Program. […] The stock solutions were prepared in dimethyl sulfoxide (DMSO, Sigma-Aldrich, St. Louis, MO, cat. D2650) at 800-fold the tested concentration and stored at -70 degrees C prior to their use. All drugs and investigational agents were tested over a range starting from a high concentration at or near the clinical Cmax and decreasing in half-log increments. If the clinical Cmax for an agent had not been determined, the highest concentration tested was 10 microM.
2.3 Cell Culture. All cells were maintained in an incubator at 37 degrees C and 5% CO2 with 95% humidity. The PDC lines were cultured according to standard operating procedures established by the NCI PDMR. All PDCs were thawed and cultured in Matrigel-coated flasks prepared with a working solution of 1X Ham's F-12 nutrient mix, without supplementation (Invitrogen, cat. 11765054), 100 U/mL penicillin-streptomycin (Invitrogen, cat. 15140122), and 2.5% Matrigel (Corning Inc., cat. 354248) for the first three passages. The 857933-349-R-J2-PDC line was cultured in 6C/Colon 1B media, which includes advanced DMEM/F-12 (Thermo Fisher Scientific, cat. 12634028), 10 mM HEPES (Thermo Fisher Scientific, cat. 15630080), 1X GlutaMAX supplement (Thermo Fisher Scientific, cat. 35050061), 0.1 mg/mL primocin (InvivoGen, cat. ant-pm-2), 10% defined fetal bovine serum, heat inactivated (HyClone Laboratories Inc., cat. SH30070.03HI), 50% L-WRN conditioned media (ATCC, cat. CRL-3276), 1.25 mM N-Acetyl-L-cysteine (Sigma-Aldrich, cat. A9165), 10 mM nicotinamide (Sigma-Aldrich, cat. N0636), 1X B-27 supplement (Thermo Fisher Scientific, cat. 17504044), 1X N-2 supplement (Thermo Fisher Scientific, cat. 17502048), 10 microM Y-27632 dihydrochloride (Tocris Bioscience, cat. 1254), and 50 ng/mL human EGF recombinant protein (Thermo Fisher Scientific, cat. PHG0311). The 485176-168-R4-J1-PDC line was cultured in Panc media, which includes all 6C/Colon 1B media components plus 100 ng/mL human FGF-10 (Thermo Fisher Scientific, cat. 100-26), 500 nM SB-431542 (Selleckchem, cat. S1067), and gastrin (Tocris, cat. 3006).
[…]

[1] = second compound 0.0316 µM, first compound 0.0316 µM
[2] = second compound 0.0316 µM, first compound 0.316 µM
[3] = second compound 0.1 µM, first compound 0.0316 µM
[4] = second compound 0.1 µM, first compound 0.316 µM
[5] = second compound 0.316 µM, first compound 0.0316 µM
[6] = second compound 0.316 µM, first compound 0.316 µM
[7] = second compound 1 µM, first compound 0.0316 µM
[8] = second compound 1 µM, first compound 0.316 µM
[9] = second compound 3.16 µM, first compound 0.0316 µM
[10] = second compound 3.16 µM, first compound 0.316 µM
[11] = second compound 10 µM, first compound 0.0316 µM
[12] = second compound 10 µM, first compound 0.316 µM
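Also: spheroids exposed to compounds for one week before readout.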
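For viability, T/C in this document: percent viability relative to vehicle DMSO wells taken as 100%.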

For `COc1cc(C2c3cc4c(cc3C(OC3OC5COC(C)OC5C(O)C3O)C3COC(=O)C23)OCO4)cc(OC)c1O` (centres undefined) + Cc1[nH]c2ccc(F)cc2c1-c1nc2c3cccnc3c3ncccc3c2[nH]1, the IC50 (second compound 0.0316 µM) was 935 nM, the IC50 (second compound 0.1 µM) was 962 nM and the IC50 (second compound 0.316 µM) was 1030 nM. The IC50 (second compound 1 µM) was 1410 nM, the IC50 (second compound 3.16 µM) was 964 nM and the IC50 (second compound 10 µM) was 980 nM. For the same compound, the viability, T/C [1] was 84.8%, the viability, T/C (second compound 0.0316 µM, first compound 0.1 µM) was 62.7% and the viability, T/C [2] was 58%. It also gave a viability, T/C (second compound 0.0316 µM, first compound 1 µM) of 53.8%, a viability, T/C (second compound 0.0316 µM, first compound 3.16 µM) of 42.1% and a viability, T/C (second compound 0.0316 µM, first compound 10 µM) of 24.6%. It also gave a viability, T/C [3] of 86.5%, a viability, T/C (second compound 0.1 µM, first compound 0.1 µM) of 73.6% and a viability, T/C [4] of 50.9%. The viability, T/C (second compound 0.1 µM, first compound 1 µM) was 59.4%, the viability, T/C (second compound 0.1 µM, first compound 3.16 µM) was 38.8% and the viability, T/C (second compound 0.1 µM, first compound 10 µM) was 24.9%. For the same compound, the viability, T/C [5] was 88.9%, the viability, T/C (second compound 0.316 µM, first compound 0.1 µM) was 69.8% and the viability, T/C [6] was 55.9%. The viability, T/C (second compound 0.316 µM, first compound 1 µM) was 59%, the viability, T/C (second compound 0.316 µM, first compound 3.16 µM) was 38.9% and the viability, T/C (second compound 0.316 µM, first compound 10 µM) was 25.4%. For the same compound, the viability, T/C [7] was 81.4%, the viability, T/C (second compound 1 µM, first compound 0.1 µM) was 71.8% and the viability, T/C [8] was 50.7%. It also gave a viability, T/C (second compound 1 µM, first compound 1 µM) of 63.1%, a viability, T/C (second compound 1 µM, first compound 3.16 µM) of 44.6% and a viability, T/C (second compound 1 µM, first compound 10 µM) of 23.5%. The viability, T/C [9] was 94.9%, the viability, T/C (second compound 3.16 µM, first compound 0.1 µM) was 65.3% and the viability, T/C [10] was 47.6%. It also gave a viability, T/C (second compound 3.16 µM, first compound 1 µM) of 56.2%, a viability, T/C (second compound 3.16 µM, first compound 3.16 µM) of 45.4% and a viability, T/C (second compound 3.16 µM, first compound 10 µM) of 24%. It also gave a viability, T/C [11] of 90.7%, a viability, T/C (second compound 10 µM, first compound 0.1 µM) of 69.5% and a viability, T/C [12] of 49.8%. It also gave a viability, T/C (second compound 10 µM, first compound 1 µM) of 56.5%, a viability, T/C (second compound 10 µM, first compound 3.16 µM) of 50.7% and a viability, T/C (second compound 10 µM, first compound 10 µM) of 27.7%.

Work on `Cn1ncnc1[C@H]1c2n[nH]c(=O)c3cc(F)cc(c23)N[C@@H]1c1ccc(F)cc1` + Cc1[nH]c2ccc(F)cc2c1-c1nc2c3cccnc3c3ncccc3c2[nH]1 yielded an IC50 (second compound 0.0316 µM) of over 316 nM, an IC50 (second compound 0.1 µM) of over 316 nM and an IC50 (second compound 0.316 µM) of over 316 nM. It also gave an IC50 (second compound 1 µM) of over 316 nM, an IC50 (second compound 3.16 µM) of over 316 nM and an IC50 (second compound 10 µM) of over 316 nM. For the same compound, the viability, T/C (second compound 0.0316 µM, first compound 0.000999 µM) was 104%, the viability, T/C (second compound 0.0316 µM, first compound 0.00316 µM) was 86% and the viability, T/C (second compound 0.0316 µM, first compound 0.00999 µM) was 103%. The viability, T/C [1] was 89.7%, the viability, T/C (second compound 0.0316 µM, first compound 0.0999 µM) was 106% and the viability, T/C [2] was 109%. The viability, T/C (second compound 0.1 µM, first compound 0.000999 µM) was 95.8%, the viability, T/C (second compound 0.1 µM, first compound 0.00316 µM) was 105% and the viability, T/C (second compound 0.1 µM, first compound 0.00999 µM) was 98%. It also gave a viability, T/C [3] of 92.7%, a viability, T/C (second compound 0.1 µM, first compound 0.0999 µM) of 102% and a viability, T/C [4] of 104%. The viability, T/C (second compound 0.316 µM, first compound 0.000999 µM) was 97.3%, the viability, T/C (second compound 0.316 µM, first compound 0.00316 µM) was 112% and the viability, T/C (second compound 0.316 µM, first compound 0.00999 µM) was 97%. For the same compound, the viability, T/C [5] was 104%, the viability, T/C (second compound 0.316 µM, first compound 0.0999 µM) was 102% and the viability, T/C [6] was 98.6%. It also gave a viability, T/C (second compound 1 µM, first compound 0.000999 µM) of 96.1%, a viability, T/C (second compound 1 µM, first compound 0.00316 µM) of 101% and a viability, T/C (second compound 1 µM, first compound 0.00999 µM) of 97.4%. The viability, T/C [7] was 95.8%, the viability, T/C (second compound 1 µM, first compound 0.0999 µM) was 104% and the viability, T/C [8] was 94.8%. It also gave a viability, T/C (second compound 3.16 µM, first compound 0.000999 µM) of 92.2%, a viability, T/C (second compound 3.16 µM, first compound 0.00316 µM) of 101% and a viability, T/C (second compound 3.16 µM, first compound 0.00999 µM) of 91.9%. The viability, T/C [9] was 103%, the viability, T/C (second compound 3.16 µM, first compound 0.0999 µM) was 114% and the viability, T/C [10] was 96.9%. For the same compound, the viability, T/C (second compound 10 µM, first compound 0.000999 µM) was 102%, the viability, T/C (second compound 10 µM, first compound 0.00316 µM) was 99.3% and the viability, T/C (second compound 10 µM, first compound 0.00999 µM) was 97.1%. The viability, T/C [11] was 99.2%, the viability, T/C (second compound 10 µM, first compound 0.0999 µM) was 104% and the viability, T/C [12] was 94.6%.
